Data: patent US6699872B2, “N-substituted urea inhibitors of farnesyl-protein transferase” (Schering Corporation, priority 1997, dated 2004)

What was measured:
[1] = tested on: Ras processing in COS cells; experiment: Cell-based assay: COS cells, inhibition of Ras processing
Experimental: 2. Cell-Based Assay. COS IC50 values refer to the COS cells activity inhibition of Ras processing, are determined by the methods disclosed in […] or WO 95/10516.

[2] = biological target: T1, partially purified rat brain farnesyl protein transferase (FPT) (Rattus norvegicus, UniProt Q02293+Q04631); experiment: In vitro enzyme assay: inhibition of Ras-CVLS farnesylation by FPT; assay type: biochemical
T1 construct: partially purified rat brain farnesyl protein transferase (FPT); from tissue; host or cells: rat brain

Row | Compound | IC50 [1] [nM] | IC50 [2] [nM]
1 | COc1ccccc1NC(=O)N1CCC(CC(=O)N2CCC([C@H]3c4ncc(Br)cc4CCc4cc(Cl)cc(Br)c43)CC2)CC1 [Example 1] | 50 | 5.1
2 | O=C(CC1CCN(C(=O)Nc2ccccc2)CC1)N1CCC([C@H]2c3ncc(Br)cc3CCc3cc(Cl)cc(Br)c32)CC1 [Example 2] | 33 | 5.4
3 | CNC(=O)N1CCC(CC(=O)N2CCC([C@H]3c4ncc(Br)cc4CCc4cc(Cl)cc(Br)c43)CC2)CC1 [Example 3] | – | 1.9
4 | CCOC(=O)CNC(=O)N1CCC(CC(=O)N2CCC([C@H]3c4ncc(Br)cc4CCc4cc(Cl)cc(Br)c43)CC2)CC1 [Example 4] | – | 2
5 | CCOC(=O)N1CCC(NC(=O)N2CCC(CC(=O)N3CCC([C@H]4c5ncc(Br)cc5CCc5cc(Cl)cc(Br)c54)CC3)CC2)CC1 [Example 6] | 20 | 1.7
6 | O=C(CC1CCN(C(=O)N(CCO)CCO)CC1)N1CCC([C@H]2c3ncc(Br)cc3CCc3cc(Cl)cc(Br)c32)CC1 [Example 7] | 18 | 3.8
7 | COC(=O)[C@H](COC(C)(C)C)NC(=O)N1CCC(CC(=O)N2CCC([C@H]3c4ncc(Br)cc4CCc4cc(Cl)cc(Br)c43)CC2)CC1 [Example 8] | 120 | 8.7
8 | COC(=O)[C@H](CO)NC(=O)N1CCC(CC(=O)N2CCC([C@H]3c4ncc(Br)cc4CCc4cc(Cl)cc(Br)c43)CC2)CC1 [Example 9] | 110 | 3.3
9 | NC(=O)[C@H](CO)NC(=O)N1CCC(CC(=O)N2CCC([C@H]3c4ncc(Br)cc4CCc4cc(Cl)cc(Br)c43)CC2)CC1 [Example 10] | 300 | 4.6
10 | O=C(CC1CCN(C(=O)NCCO)CC1)N1CCC([C@H]2c3ncc(Br)cc3CCc3cc(Cl)cc(Br)c32)CC1 [Example 11] | 18 | 3.1
11 | O=C(O)CNC(=O)N1CCC(CC(=O)N2CCC([C@H]3c4ncc(Br)cc4CCc4cc(Cl)cc(Br)c43)CC2)CC1 [Example 12] | – | 0.8
12 | NC(=O)CNC(=O)N1CCC(CC(=O)N2CCC([C@H]3c4ncc(Br)cc4CCc4cc(Cl)cc(Br)c43)CC2)CC1 [Example 13] | 25 | 0.9
13 | CNC(=O)N1CCC(CC(=O)N2CCN(C3c4ccc(Cl)cc4CCc4cc(Br)cnc43)CC2)CC1 (stereo not shown) [Example 14, 4-[2-[4-(3-Bromo-8-chloro-6,11-dihydro-5H-benzo[5,6]-cyclohepta[1,2-b]pyridin-11-yl)-1-piperazinyl]-2-oxoethyl]-N-methyl-1-piperidinecarboxamide] | 750 | 50
14 | CCCNC(=O)N1CCC(CC(=O)N2CCN(C3c4ccc(Cl)cc4CCc4cc(Br)cnc43)CC2)CC1 (stereo not shown) [Example 15, 4-[2-[4-(3-Bromo-8-chloro-6,11-dihydro-5H-benzo[5,6]cyclohepta[1,2-b]pyridin-11-yl)-1-piperazinyl]-2-oxoethyl]-N-propyl-1-piperidinecarboxamide] | 1500 | 100
15 | CC(C)(C)NC(=O)N1CCC(CC(=O)N2CCN(C3c4ccc(Cl)cc4CCc4cc(Br)cnc43)CC2)CC1 (stereo not shown) [Example 16, 4-[2-[4-(3-Bromo-8-chloro-6,11-dihydro-5H-benzo[5,6]cyclohepta[1,2-b]pyridin-11-yl)-1-piperazinyl]-2-oxoethyl]-N-(1,1-dimethylethyl)-1-piperidinecarboxamide] | – | 108
16 | (+)-Methyl alpha(S)-[[[4-[2-[4-[(3,10-dibromo-8-chloro-6,11-dihydro-5H-benzo[5,6]cyclohepta[1,2-b]pyridin-11(R)-yl)-1-piperidinyl]-2-oxoethyl]-1-piperidinyl]carbonyl]amino]-beta-methylbutanoate [Example 5] | 150 | 5
